pKi: −log10 of the molar value.
Target: human PSMA (Homo sapiens (Human), UniProt Q04609)
Assay: Enzymatic assay for in vitro evaluation of PSMA inhibitors (fluorescent assay of PSMA activity, NAAG substrate, OPA detection of glutamate)
Assay type: biochemical

Sequence of human PSMA (Q04609 whole entry): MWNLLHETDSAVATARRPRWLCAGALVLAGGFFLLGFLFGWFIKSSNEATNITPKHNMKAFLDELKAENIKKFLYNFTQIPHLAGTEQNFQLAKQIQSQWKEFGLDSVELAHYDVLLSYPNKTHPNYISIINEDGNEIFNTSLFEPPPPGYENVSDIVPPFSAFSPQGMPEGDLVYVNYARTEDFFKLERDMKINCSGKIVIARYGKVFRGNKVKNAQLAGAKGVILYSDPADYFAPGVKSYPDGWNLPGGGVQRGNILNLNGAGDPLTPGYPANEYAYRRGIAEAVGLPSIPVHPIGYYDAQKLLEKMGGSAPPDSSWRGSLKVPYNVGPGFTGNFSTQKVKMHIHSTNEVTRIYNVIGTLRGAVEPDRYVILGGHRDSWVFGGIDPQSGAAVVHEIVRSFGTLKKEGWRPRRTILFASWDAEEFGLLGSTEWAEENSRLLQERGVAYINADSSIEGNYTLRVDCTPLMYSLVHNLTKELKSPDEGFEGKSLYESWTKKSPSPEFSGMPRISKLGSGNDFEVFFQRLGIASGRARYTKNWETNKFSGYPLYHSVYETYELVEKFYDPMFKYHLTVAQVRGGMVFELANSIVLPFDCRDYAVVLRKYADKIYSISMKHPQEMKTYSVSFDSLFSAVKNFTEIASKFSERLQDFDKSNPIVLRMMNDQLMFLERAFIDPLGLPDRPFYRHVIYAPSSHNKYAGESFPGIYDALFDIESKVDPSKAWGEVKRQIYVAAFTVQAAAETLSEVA

| PSMA Blkg % (10 μM) [%] | pKi | PSMA Blkg % (1.0 μM) [%] | SMILES |
| --- | --- | --- | --- |
| 44 |  |  | O=C(O)CC[C@H](NC(=O)C[C@@H](NC(=O)CCCCCNC(=O)OCc1ccccc1)C(=O)O)C(=O)O [P209, (12R,16S)-3,10,14-Trioxo-1-phenyl-2-oxa-4,11,15-triazaoctadecane-12,16,18-tricarboxylic Acid] |
| 16 |  |  | O=C(O)CC[C@H](NC(=O)C[C@@H](NC(=O)Cc1ccc(F)cc1)C(=O)O)C(=O)O [P210, (S)-2-((R)-3-Carboxy-3-(2-(4-fluorophenyl)acetamido)propanamido)pentanedioic Acid] |
| 43 |  |  | O=C(O)CC[C@H](NC(=O)C[C@@H](NC(=O)CCCc1ccc(F)cc1)C(=O)O)C(=O)O [P211, (S)-2-((R)-3-Carboxy-3-(4-(4-fluorophenyl)butanamido)propanamido)pentanedioic Acid] |
| 99 | 8.51 |  | O=C(O)CC[C@H](NC(=O)N[C@@H](Cc1ccc(NC(=O)Nc2ccc(-n3cc(CCCF)nn3)cc2)cc1)C(=O)O)C(=O)O [P212, (S)-2-(3-((S)-1-Carboxy-2-(4-(3-(4-(4-(3-fluoropropyl)-1H-1,2,3-triazol-1-yl)phenyl)ureido)phenyl)ethyl)ureido)pentanedioic Acid] |
| 33 |  |  | O=C(O)CC[C@H](NC(=O)C[C@@H](NC(=O)c1ccc(F)nc1)C(=O)O)C(=O)O [P213, (S)-2-((R)-3-Carboxy-3-(6-fluoronicotinamido)propanamido)pentanedioic Acid] |
| 34 |  |  | O=C(O)CC[C@H](NC(=O)C[C@@H](NC(=O)NCCc1ccccc1)C(=O)O)C(=O)O [P214, (S)-2-((R)-3-Carboxy-3-(3-phenethylureido)propanamido)pentanedioic Acid] |
| 99 | 8.66 |  | O=C(O)CC[C@H](NC(=O)N[C@@H](Cc1ccc(NC(=O)c2ccc(-n3cc(CCCF)nn3)cc2)cc1)C(=O)O)C(=O)O [P215, (S)-2-(3-((S)-1-Carboxy-2-(4-(4-(4-(3-fluoropropyl)-1H-1,2,3-triazol-1-yl)-benzamido)-phenyl)ethyl)ureido)pentanedioic Acid] |
| 98 | 7.66 |  | O=C(O)CC[C@H](NC(=O)N[C@@H](Cc1ccc(NC(=O)COCCOCCOCCn2cc(CCCF)nn2)cc1)C(=O)O)C(=O)O [P216] |
| 96 | 7.50 |  | O=C(O)CC[C@H](NC(=O)N[C@@H](Cc1ccc(NC(=O)Cn2cc(CCCF)nn2)cc1)C(=O)O)C(=O)O [P217, (S)-2-(3-((S)-1-Carboxy-2-(4-(4-(4-(3-fluoropropyl)-1H-1,2,3-triazol-1-yl)-acetamido)-phenyl)ethyl)ureido)pentanedioic Acid] |
| 98 | 9.22 |  | O=C(O)CC[C@H](NC(=O)N[C@@H](CCCCNc1nc(-c2ccc(-n3cc(CCCF)nn3)cc2)cs1)C(=O)O)C(=O)O [P218, (S)-2-(3-((S)-1-Carboxy-5-((4-(4-(4-(3-fluoropropyl)-1H-1,2,3-triazol-1-yl)phenyl)thiazol-2-yl)amino)pentyl)ureido)pentanedioic Acid] |
| 74 |  |  | O=C(O)CC[C@H](NC(=O)C[C@@H](NC(=O)CCCc1ccc(-n2cc(CCCF)nn2)cc1)C(=O)O)C(=O)O [P219, (S)-2-((R)-3-Carboxy-3-(4-(4-(4-(3-fluoropropyl)-1H-1,2,3-triazol-1-yl)phenyl)butanamido)-propanamido)pentanedioic Acid] |
|  |  | 34 | O=C(O)CC[C@H](NC(=O)C[C@@H](NC(=O)CCc1ccc(-n2cc(CCCF)nn2)cc1)C(=O)O)C(=O)O [P220, (S)-2-((R)-3-Carboxy-3-(3-(4-(4-(3-fluoropropyl)-1H-1,2,3-triazol-1-yl)phenyl)-propanamido)-propanamido)pentanedioic Acid] |
|  |  | 15 | O=C(O)CC[C@H](NC(=O)C[C@@H](NC(=O)c1ccc(-n2cc(CCCF)nn2)cc1)C(=O)O)C(=O)O [P221, (S)-2-((R)-3-Carboxy-3-(4-(4-(3-fluoropropyl)-1H-1,2,3-triazol-1-yl)benzamido)propanamido)-pentanedioic Acid] |
|  | 9.25 | 98 | O=C(O)CC[C@H](NC(=O)N[C@@H](Cc1ccc(NC(=O)N2CCN(C(=O)OCc3ccccc3)CC2)cc1)C(=O)O)C(=O)O [P222] |
|  | 8.96 | 98 | O=C(O)CC[C@H](NC(=O)N[C@@H](Cc1ccc(NC(=O)Nc2ccc(C[C@H](NC(=O)N[C@@H](CCC(=O)O)C(=O)O)C(=O)O)cc2)cc1)C(=O)O)C(=O)O [P223, (2S,2′S)-2,2′-(((((1S,1′S)-((Carbonylbis(azanediyl))bis(4,1-phenylene))bis(1-carboxyethane-2,1-diyl))bis(azanediyl))bis(carbonyl))bis(azanediyl))dipentanedioic Acid] |
|  |  | 65 | O=C(O)CC[C@H](NC(=O)N[C@@H](COC(=O)N1CCN(C(=O)OCc2ccccc2)CC1)C(=O)O)C(=O)O [P224, (S)-2-(3-((S)-2-((4-((Benzyloxy)carbonyl)piperazine-1-carbonyl)oxy)-1-carboxyethyl)ureido)pentanedioic Acid] |

Further lines, the compound ahead of its results:

| SMILES | PSMA Blkg % (10 μM) [%] | pKi | PSMA Blkg % (1.0 μM) [%] |
| --- | --- | --- | --- |
| O=C(O)CCC(CP(=O)(O)OCCOCCOCCOCCn1cc(CCCF)nn1)C(=O)O (stereo not shown) [P193, 2-(((2-(2-(2-(2-(4-(3-Fluoropropyl)-1H-1,2,3-triazol-1-yl)ethoxy)ethoxy)ethoxy)ethoxy)(hydroxy)phosphoryl)methyl)pentanedioic Acid] | 0 |  |  |
| O=C(O)CC[C@H](NC(=O)N[C@@H](CCCCNC(=O)[C@H]1O[C@@H](CNC(=O)CCc2ccc(-n3cc(CCCF)nn3)cc2)[C@H](O)[C@@H](O)[C@H]1O)C(=O)O)C(=O)O [P194, (S)-2-(3-((S)-1-Carboxy-5-((2S,3R,4R,5R,6S)-6-((3-(4-(4-(3-fluoropropyl)-1H-1,2,3-triazol-1-yl)phenyl)propanamido)methyl)-3,4,5-trihydroxytetrahydro-2H-pyran-2-carboxamido)pentyl)ureido)pentanedioic Acid] | 96 | 7.16 |  |
| O=C(O)CC[C@H](NC(=O)N[C@@H](Cc1ccc(OCCn2cc(CCCF)nn2)cc1)C(=O)O)C(=O)O [P195, (S)-2-(3-((S)-1-Carboxy-2-(4-(2-(4-(3-fluoropropyl)-1H-1,2,3-triazol-1-yl)ethoxy)phenyl)ethyl)ureido)pentanedioic Acid] | 96 | 7.18 |  |
| CC(=O)N(CCF)CC(CP(=O)(O)O)C(=O)O.O=C(O)C(F)(F)F (stereo not shown) [P196, 3-(N-(2-Fluoroethyl)acetamido)-2-(phosphonomethyl)propanoic Acid] | 27 |  |  |
| O=C(O)CCC(CP(=O)(O)NCCc1ccccc1)C(=O)O (stereo not shown) [P197, 2-((Hydroxy(phenethylamino)phosphoryl)methyl)pentanedioic Acid] | 22 | < 5.52 |  |
| O=C(O)CCC(Nc1c(NC(CCC(=O)O)C(=O)O)c(=O)c1=O)C(=O)O (stereo not shown) [P198, 2,2′-[(3,4-Dioxocyclobut-1-ene-1,2-diyl)bis(azanediyl)]dipentanedioic Acid] | 14 |  |  |
| O=C(O)CC[C@H](NC(=O)C[C@@H](NC(=O)OCC1c2ccccc2-c2ccccc21)C(=O)O)C(=O)O [P199, (S)-2-[(R)-((((9H-Fluoren-9-yl)methoxy)carbonyl)amino)-3-carboxypropanamido]pentanedioic Acid] | 82 | < 6.73 |  |
| O=C(O)CC[C@H](NC(=O)N[C@@H](CCCCNC(=S)Nc1ccc(-n2cc(CCCF)nn2)cc1)C(=O)O)C(=O)O [P200, (S)-2-(3-((S)-1-Carboxy-5-(3-(4-(4-(3-fluoropropyl)-1H-1,2,3-triazol-1-yl)phenyl)thioureido)pentyl)-ureido)pentanedioic Acid] | 95 | > 9.52 |  |
| CC(C)(C)OC(=O)N1CCC[C@H]1COP(=O)(O)CC(CCC(=O)O)C(=O)O (stereo partly drawn) [P201, 2-(((((S)-1-(tert-butoxycarbonyl)pyrrolidin-2-yl)methoxy)(hydroxy)phosphoryl)methyl)-pentanedioic Acid] | 83 | < 6.52 |  |
| O=C(O)CC[C@H](NC(=O)NC(Cc1ccc(OCCn2cc(CCCF)nn2)cc1)C(=O)O)C(=O)O (stereo partly drawn) [P202, (2S)-2-(3-(1-Carboxy-2-(4-(2-(4-(3-fluoropropyl)-1H-1,2,3-triazol-1-yl)ethoxy)phenyl)ethyl)ureido)pentanedioic Acid] | 97 | 7.03 |  |
| O=C(O)CC[C@H](NC(=O)N[C@@H](Cc1ccc(OCCOCCOCCn2cc(CCCF)nn2)cc1)C(=O)O)C(=O)O [P203, (S)-2-(3-((S)-1-Carboxy-2-(4-(2-(2-(2-(4-(3-fluoropropyl)-1H-1,2,3-triazol-1-yl)ethoxy)ethoxy)ethoxy)phenyl)ethyl)ureido)pentanedioic Acid] | 97 | 7.39 |  |
| O=C(O)CC[C@H](NC(=O)N[C@@H](COCc1ccccc1)C(=O)O)C(=O)O [P204, (S)-2-(3-((S)-2-(Benzyloxy)-1-carboxyethyl)ureido)pentanedioic Acid] | 98 | 8.16 |  |
| O=C(O)CCC(CP(=O)(O)OC[C@@H]1CCCN1C(=O)Cc1ccccc1)C(=O)O (stereo partly drawn) [P205, 2-((Hydroxy(((S)-1-(2-phenylacetyl)pyrrolidin-2-yl)methoxy)phosphoryl)methyl)pentanedioic Acid] | 79 |  |  |
| O=C(O)CCC(CP(=O)(O)OC[C@@H]1CCCN1C(=O)CCc1ccc(-n2cc(CCCF)nn2)cc1)C(=O)O (stereo partly drawn) [P206, 2-(((((S)-1-(3-(4-(4-(3-Fluoropropyl)-1H-1,2,3-triazol-1-yl)phenyl)propanoyl)pyrrolidin-2-yl)methoxy)(hydroxy)phosphoryl)methyl)pentanedioic Acid] | 81 |  |  |
| O=C(O)CCC(CP(=O)(O)OC[C@@H]1CCCN1C(=O)CCCc1ccc(-n2cc(CCCF)nn2)cc1)C(=O)O (stereo partly drawn) [P207, 2-(((((S)-1-(4-(4-(4-(3-Fluoropropyl)-1H-1,2,3-triazol-1-yl)phenyl)butanoyl)pyrrolidin-2-yl)methoxy)(hydroxy)phosphoryl)methyl)pentanedioic Acid] | 96 | 7.73 |  |
| O=C(O)CC[C@H](NC(=O)C[C@@H](NC(=O)CCCNC(=O)OCc1ccccc1)C(=O)O)C(=O)O [P208, (10R,14S)-3,8,12-Trioxo-1-phenyl-2-oxa-4,9,13-triazahexadecane-10,14,16-tricarboxylic Acid] | 75 |  |  |

Source: patent US10894807B2 (Siemens Medical Solutions USA, Inc., priority 2011, dated 2021)
